The numbers were not newly measured in paper PMC8583718, “Transient Fluorescence Labeling: Low Affinity—High Benefits” (International Journal of Molecular Sciences, 2021), which cites them from elsewhere.

Where “and” joins values, the source holds several entries; their conditions need not be identical. Identical values can stand only once. Like-named read-outs stand apart in the source and are kept apart here.

One series deals with mFAP1. Also noted: method as in PMID 30209393. Particulars: mFAP1 with DFHBI; read-out: dissociation constant.
For a further series, the target named is mFAP2. Also noted: method as in PMID 30209393. As to conditions: mFAP2 with DFHBI; read-out: dissociation constant.
In series [1] the target is dimeric transcription factors LmrR and RamR. Also noted: method as in PMID 33913682. Particulars: modified LmrR and RamR.
The subject of another series is Y-FAST. On the set-up: method as in PMID 26711992.
The target of a further series is DNA. On the set-up: method as in PMID 26423723. As to conditions: staining of DNA.
The next series concerns the target UnaG. On the set-up: method as in PMID 23768684. As to conditions: bilirubin–UnaG.
In a further series the test system is actin structures. Also noted: method as in PMID 26317264. Particulars: compared among actin tags.
Series [2] deals with F-actin. Also noted: method as in PMID 18536722.
The test system of a further series is G-actin. On the set-up: method as in PMID 18536722. Particulars: G-actin compared with F-actin.
Series [3] deals with microtubules. Also noted: method as in PMID 29662074. As to conditions: interaction with microtubules.
Series [4] concerns the target F-actin. On the set-up: method as in PMID 15826935. Particulars: binding to F-actin.
Series [5] addresses microtubules. On the set-up: method as in PMID 12773533. As to conditions: interaction with microtubules.
Series [6] concerns the target protein–fluorogen complexes. As to conditions: UnaG system.

Turning to `CC1=N/C(=C\c2cc(F)c(O)c(F)c2)C(=O)N1C` [DFHBI, 3,5-difluoro-4-hydroxybenzylidene imidazolinone], the Kd on mFAP1 is 180 nM; at mFAP2 it was 560 nM. Moreover, in [1], the Dissociation constants result is reported as “submicromoles to several micromoles”.
On to `Cc1cc(C=C2SC(=S)NC2=O)ccc1O` [HMBR, 4-hydroxy-3-methylbenzylidene rhodanine], for which the “residence time in the complex” value in the series on Y-FAST (25 °C, HMBR–Y-FAST) is reported as 160 ms. For the same molecule, the Kd at Y-FAST (HMBR in complex with Y-FAST) is about 130 nM.
As for `CN1CCN(c2ccc3nc(-c4ccc5nc(-c6ccc(OCCCCNC(=O)c7ccc(C(=O)[O-])c(C8=C9C=CC(=[N+](C)C)C=C9[Si](C)(C)c9cc(N(C)C)ccc98)c7)cc6)[nH]c5c4)[nH]c3c2)CC1` [SiR-Hoechst], the Kd on DNA is 8400 nM.
Consider `C=CC1=C(C)/C(=C/c2[nH]c(Cc3[nH]c(/C=C4\NC(=O)C(C)=C4C=C)c(C)c3CCC(=O)O)c(CCC(=O)O)c2C)NC1=O` [bilirubin], for which, at UnaG, the Kd was 0.098 nM.
Consider “F-tractin: residues 10–52 of rat inositol 1,4,5-triphosphate-3-kinase A (MARPRGAGPCSPGLERAPRRSVGELRLLFEARCAAVAAAAAAG; UniProt P17105 10-52, looked up, fragment)”, for which, in the series with actin structures, the exchange rate entry is “highest exchange rate among all actin tags”.
As for “Lifeact: short (17 amino acids) fragment of actin filament-binding protein Abp140 from Saccharomyces cerevisiae”, at F-actin [2] (affinity to F-actin), the Kd was ~2200 nM and 2200 nM. For the same molecule, the exchange of probes in the series with F-actin [2] (on F-actin) is at most 0.4 s. For the same molecule, the “higher affinity to G-actin” value in the series on G-actin is recorded as 10 fold.

B1: MAP7: microtubule-associated protein (protein, UniProt Q14244 2-749, looked up)
Ensconsin: AELGAGGDGHRGGDGAVRSETAPDSYKVQDKKNASSRPASAISGQNNNHSGNKPDPPPVLRVDDRQRLARERREEREKQLAAREIVWLEREERARQHYEKHLEERKKRLEEQRQKEERRRAAVEEKRRQRLEEDKERHEAVVRRTMERSQKPKQKHNRWSWGGSLHGSPSIHSADPDRRSVSTMNLSKYVDPVISKRLSSSSATLLNSPDRARRLQLSPWESSVVNRLLTPTHSFLARSKSTAALSGEAASCSPIIMPYKAAHSRNSMDRPKLFVTPPEGSSRRRIIHGTASYKKERERENVLFLTSGTRRAVSPSNPKARQPARSRLWLPSKSLPHLPGTPRPTSSLPPGSVKAAPAQVRPPSPGNIRPVKREVKVEPEKKDPEKEPQKVANEPSLKGRAPLVKVEEATVEERTPAEPEVGPAAPAMAPAPASAPAPASAPAPAPVPTPAMVSAPSSTVNASASVKTSAGTTDPEEATRLLAEKRRLAREQREKEERERREQEELERQKREELAQRVAEERTTRREEESRRLEAEQAREKEEQLQRQAEERALREREEAERAQRQKEEEARVREEAERVRQEREKHFQREEQERLERKKRLEEIMKRTRRTEATDKKTSDQRNGDIAKGALTGGTEVSALPCTTNAPGNGKPVGSPHVVTSHQSKVTVESTPDLEKQPNENGVSVQNENFEEIINLPIGSKPSRLDVTNSESPEIPLNPILAFDDEGTLGPLPQVDGVQTQQTAEVI
For B1, at microtubules [3], the Kd was about 470 nM.

B2: Utr261: first 261 amino acid residues of utrophin, the filament-crosslinking protein (protein, UniProt P46939 1-261, looked up, fragment)
chain: MAKYGEHEASPDNGQNEFSDIIKSRSDEHNDVQKKTFTKWINARFSKSGKPPINDMFTDLKDGRKLLDLLEGLTGTSLPKERGSTRVHALNNVNRVLQVLHQNNVELVNIGGTDIVDGNHKLTLGLLWSIILHWQVKDVMKDVMSDLQQTNSEKILLSWVRQTTRPYSQVNVLNFTTSWTDGLAFNAVLHRHKPDLFSWDKVVKMSPIERLEHAFSKAQTYLGIEKLLDPEDVAVQLPDKKSIIMYLTSLFEVLPQQVTID
As to B2, the Kd on F-actin [4] was 18600 nM.

B3: MAP4: microtubule-associated protein (protein, UniProt P27816 2-1152, looked up)
Microtubule-associated …: ADLSLADALTEPSPDIEGEIKRDFIATLEAEAFDDVVGETVGKTDYIPLLDVDEKTGNSESKKKPCSETSQIEDTPSSKPTLLANGGHGVEGSDTTGSPTEFLEEKMAYQEYPNSQNWPEDTNFCFQPEQVVDPIQTDPFKMYHDDDLADLVFPSSATADTSIFAGQNDPLKDSYGMSPCNTAVVPQGWSVEALNSPHSESFVSPEAVAEPPQPTAVPLELAKEIEMASEERPPAQALEIMMGLKTTDMAPSKETEMALAKDMALATKTEVALAKDMESPTKLDVTLAKDMQPSMESDMALVKDMELPTEKEVALVKDVRWPTETDVSSAKNVVLPTETEVAPAKDVTLLKETERASPIKMDLAPSKDMGPPKENKKETERASPIKMDLAPSKDMGPPKENKIVPAKDLVLLSEIEVAQANDIISSTEISSAEKVALSSETEVALARDMTLPPETNVILTKDKALPLEAEVAPVKDMAQLPETEIAPAKDVAPSTVKEVGLLKDMSPLSETEMALGKDVTPPPETEVVLIKNVCLPPEMEVALTEDQVPALKTEAPLAKDGVLTLANNVTPAKDVPPLSETEATPVPIKDMEIAQTQKGISEDSHLESLQDVGQSAAPTFMISPETVTGTGKKCSLPAEEDSVLEKLGERKPCNSQPSELSSETSGIARPEEGRPVVSGTGNDITTPPNKELPPSPEKKTKPLATTQPAKTSTSKAKTQPTSLPKQPAPTTIGGLNKKPMSLASGLVPAAPPKRPAVASARPSILPSKDVKPKPIADAKAPEKRASPSKPASAPASRSGSKSTQTVAKTTTAAAVASTGPSSRSPSTLLPKKPTAIKTEGKPAEVKKMTAKSVPADLSRPKSTSTSSMKKTTTLSGTAPAAGVVPSRVKATPMPSRPSTTPFIDKKPTSAKPSSTTPRLSRLATNTSAPDLKNVRSKVGSTENIKHQPGGGRAKVEKKTEAAATTRKPESNAVTKTAGPIASAQKQPAGKVQIVSKKVSYSHIQSKCGSKDNIKHVPGGGNVQIQNKKVDISKVSSKCGSKANIKHKPGGGDVKIESQKLNFKEKAQAKVGSLDNVGHLPAGGAVKTEGGGSEAPLCPGPPAGEEPAISEAAPEAGAPTSASGLNGHPTLSGGGDQREAQTLDSQIQETSI
Take B3: the Kd on microtubules [5] was about 300 nM.

B4: UnaG: fluorogen-activating protein from Japanese eel muscle that reversibly binds bilirubin (protein, UniProt P0DM59 1-139, looked up)
Bilirubin-inducible …: MVEKFVGTWKIADSHNFGEYLKAIGAPKELSDGGDATTPTLYISQKDGDKMTVKIENGPPTFLDTQVKFKLGEEFDEFPSDRRKGVKSVVNLVGEKLVYVQKWDGKETTYVREIKDGKLVVTLTMGDVVAVRSYRRATE
Regarding B4, in series [6], the Kd was 0.098 nM.
